Measurements reported in patent US4297357A, “N-Phenethylacetamide compounds and process for preparation thereof” (Daiichi Seiyaku Co., Ltd., priority 1978, dated 1981).
Where a name gives a salt, the structure may show the parent alone. Blank lines part the entries; values can stand above or below the molecule they belong to.

Tests used:
Stress Ulcer = assay: Inhibitory Effect on Stress Ulcer in Rat (Water Immersion Restraint Method); format: in vivo; details: water immersion restraint 21° C.; for inhibition in vivo at 100 mg/kg / inhibition in vivo at 200 mg/kg / inhibition in vivo at 400 mg/kg: Rattus norvegicus
Experimental: In this experiment, test compounds were administered as the free base, in the form of the hydrochloric acid salts or in the form of the hydrate. | Inhibitory Effect on Stress Ulcer in Rat |Inhibitory Effect on Stress Ulcer in Rat |Inhibitory Effect on Stress Ulcer in Rat Note 2. Inhibitory effect on Stress Ulcer was examined according to Water Immersion Restraint Method disclosed in Japanese Journal of Pharmacology, Vol. 18, 9 (1968). Note 3. As test animals, seven rats weighing about 300 g were used for each dosage level. Note 4. Test compounds were injected intraperitoneally or administered orally before 30 minutes of water immersion restrain. Note 5. Test animals were immersed and restrained in water at 21° C. for 20 hours in experiment of Tables 2 and 3 and at 21° C. for 7 hours in experiment of Table 4.

ulcer = details: The Pharmacological Basis of Therapeutics, 4th Edition, 234 (1970); cited from earlier work
cardiovascular system = details: Pharmacometrics, Vol. 8, 835-846 (1974); cited from earlier work
[1] = tested on: Secretion of Gastric Acids Induced by Insuline; assay: Inhibitory effect on secretion of gastric acids induced by insuline (modified Shield's Method); format: in vivo; details: rat, i.v., insuline 4 ug/kg
Experimental: Accordingly, the compounds of this invention are very useful as a unique type of anti-ulcer agent. […] The results obtained in this experiment are shown in Table 5 and Table 6 below. |Inhibitory Effects on Secretion of Gastric Acids |Induced by Insuline (dose: 4 ug/kg, i.v.)

[2] = tested on: Secretion of Gastric Acids Induced by Carpronium Chloride; assay: Inhibitory effect on secretion of gastric acids induced by carpronium chloride (modified Shield's Method); format: in vivo; details: rat, i.v., carpronium chloride 8-10 μg/rat
Experimental: Accordingly, the compounds of this invention are very useful as a unique type of anti-ulcer agent. […] The results obtained in this experiment are shown in Table 5 and Table 6 below. |Inhibitory Effects on Secretion of Gastric Acids Induced |by Carponium Chloride (dose: 8-10 μg/rat, i.v.)

[3] = isothermal absorption curve, stability of hydrate under high humidity; format: physicochemical
Experimental: (§1) It was also confirmed by thin layer chromatography that the hydrate was stable in methanol at room temperature for 48 hours. This means that it is possible to use methanol as a solvent in producing pharmaceutical preparations. It was further confirmed that a mixture of the hydrate of this invention with various kinds of additives such as carriers, diluents, etc., was stable under accelerated conditions, i.e., under high humidity at an elevated temperature for one month or under the light irradiation from 2,500 lux for one month.

[4] = stability of hydrate in methanol by thin layer chromatography; format: physicochemical; details: room temperature, 48 hours
Experimental: as §1

[5] = Stability of Mixture of Hydrate with Various Kinds of Additives (one month storage), color change; format: physicochemical; design: key to color change: --: no color change; ±: slight color change; +: clear color change
Experimental: as §1
Stability of Mixture of Hydrate with Various
Kinds of Additives (one month storage)
The meaning of the symbols is as follows.
Samples were prepared by well mixing 100 mg of the hydrate with 100 mg of
the additive except for magnesium stearate and talc. In case of using
magnesium stearate or talc as the additive, 10 mg of the hydrate was used

[6] = ip, 20 h, intraperitoneal, 100 mg/kg

Compound: COc1ccc(CCNC(=O)CNc2ccc(Cl)cc2C(N)=O)cc1OC
inhibition in vivo at 100 mg/kg (Stress Ulcer; [6]): 34%

Compound: NCCc1ccc(O)c(O)c1 [Dopamine, 3,4-dihydroxyphenethylamine]
anti-ulcer activity (ulcer): has anti-ulcer activity
action on cardiovascular system (cardiovascular system): acts strongly on cardiovascular system

Compound: COc1ccc(CCNC(=O)CNc2cccc(C(N)=O)c2)cc1OC [drawing 15]
inhibition in vivo at 100 mg/kg (Stress Ulcer; [6]): 53%

Compound: COc1ccc(CCNC(=O)CNc2cccc(Cl)c2)cc1OC
inhibition in vivo at 100 mg/kg (Stress Ulcer; [6]): 36%

Compound: COc1ccc(CCNC(=O)CNc2ccc(Cl)c(C(N)=O)c2)cc1OC
inhibition in vivo at 100 mg/kg (Stress Ulcer; [6]): 35%

Compound: COc1ccc(CCNC(=O)CNC(=O)c2ccccc2OC)cc1OC
inhibition in vivo at 100 mg/kg (Stress Ulcer; [6]): 50%

Compound: COc1ccc(CCNC(=O)CNc2cc(Cl)ccc2C(N)=O)cc1OC [Compound 1, 2-(2-carbamoyl-5-chlorophenylamino)-N-(3,4-dimethoxyphenethyl)acetamide]
Inhibition ([1]; 50 mg/kg): 50%
inhibition in vivo at 100 mg/kg (Stress Ulcer; po, 20 h, 100 mg/kg): 5%
inhibition in vivo at 200 mg/kg (Stress Ulcer; po, 20 h): 17%
inhibition in vivo at 400 mg/kg (Stress Ulcer; po, 20 h): 18%
Inhibition ([2]; 50 mg/kg): 0%

Compound: COc1ccc(CCNC(=O)CNc2ccccc2)cc1OC [drawing 8]
inhibition in vivo at 100 mg/kg (Stress Ulcer; [6]): 42%

Compound: COc1ccc(CCNC(=O)CNc2ccc(C(N)=O)cc2)cc1OC
inhibition in vivo at 100 mg/kg (Stress Ulcer; [6]): 20%

Compound: COc1ccc(CCNC(=O)CNc2cccc(C(N)=O)c2)cc1OC [drawing 16]
Inhibitory Effect (Stress Ulcer; intraperitoneal, 100 mg/kg, 20 hours): 52%

Compound: CNc1nc(Cl)c(SC)c(NCC(=O)NCCc2ccc(OC)c(OC)c2)n1
inhibition in vivo at 100 mg/kg (Stress Ulcer; [6]): 17%

Compound: COc1ccc(CCNC(=O)CNc2cc(OC)c(C(N)=O)cc2Cl)cc1OC
inhibition in vivo at 100 mg/kg (Stress Ulcer; [6]): 21%

Compound: COc1ccc(CCNC(=O)CNc2cccc(C(N)=O)c2)cc1OC.Cl [Compound 2, 2-(3-carbamoylphenylamino)-N-(3,4-dimethoxyphenethyl)acetamide hydrochloride]
Inhibition ([1]; 10 mg/kg): 80%
inhibition in vivo at 100 mg/kg (Stress Ulcer; po, 20 h, 100 mg/kg): 5%
inhibition in vivo at 200 mg/kg (Stress Ulcer; po, 20 h): 21%
inhibition in vivo at 400 mg/kg (Stress Ulcer; po, 20 h): 33%
Inhibition ([2]; 50 mg/kg): 0%
Inhibition ([2]; 100 mg/kg): 0%

Compound: COc1ccc(CCNC(=O)CNc2cc(N)ncn2)cc1OC
inhibition in vivo at 100 mg/kg (Stress Ulcer; [6]): 27%

Compound: COc1ccc(CCNC(=O)CNc2cc(Cl)ccc2C(N)=O)cc1OC [drawing 11]
inhibition in vivo at 100 mg/kg (Stress Ulcer; [6]): 38%

Compound: COc1ccc(C(N)=O)c(NCC(=O)NCCc2ccc(OC)c(OC)c2)c1
inhibition in vivo at 100 mg/kg (Stress Ulcer; [6]): 44%

Compound: CCN1CCCC1CNC(=O)c1cc(S(N)(=O)=O)ccc1OC (centres unmarked) [Sulpiride, N-[(1-ethyl-2-pyrrolidinyl)methyl]-2-methoxy-5-sulfamoylbenzamide, reference compound]
inhibition in vivo at 100 mg/kg (Stress Ulcer; [6]): 27%
inhibition in vivo at 100 mg/kg (Stress Ulcer; po, 7 h, 100 mg/kg): 29%
inhibition in vivo at 200 mg/kg (Stress Ulcer; po, 7 h): 20%
inhibition in vivo at 400 mg/kg (Stress Ulcer; po, 7 h): 39%
inhibition in vivo at 100 mg/kg (Stress Ulcer; po, 20 h, 100 mg/kg): 5%
inhibition in vivo at 200 mg/kg (Stress Ulcer; po, 20 h): 4%
inhibition in vivo at 400 mg/kg (Stress Ulcer; po, 20 h): 11%

Compound: COc1ccc(CCNC(=O)CNc2ccccc2)cc1OC [Compound 3, 2-(phenylamino)-N-(3,4-dimethoxyphenethyl)acetamide hydrochloride]
inhibition in vivo at 100 mg/kg (Stress Ulcer; po, 20 h, 100 mg/kg): 20%
inhibition in vivo at 200 mg/kg (Stress Ulcer; po, 20 h): 20%
inhibition in vivo at 400 mg/kg (Stress Ulcer; po, 20 h): 25%

stability under high humidity ([3]; high humidity at an elevated temperature): very stable
relative critical humidity ([3]; isothermal absorption curve): had not relative critical humidity
stability in methanol [4]: stable
color change ([5]; additive Calcium Phosphate Dibasic, one month storage, condition shown as drawing 6 (high humidity at an elevated temperature)): --
color change ([5]; additive Calcium Phosphate Dibasic, one month, light 2500 lux): --
color change ([5]; additive Cornstarch, one month storage, condition shown as drawing 6 (high humidity at an elevated temperature)): --
color change ([5]; additive Cornstarch, one month, light 2500 lux): --
color change ([5]; additive Crystalline Cellulose, one month storage, condition shown as drawing 6 (high humidity at an elevated temperature)): --
color change ([5]; additive Crystalline Cellulose, one month, light 2500 lux): --
color change ([5]; additive Hydroxypropylcellulose, one month storage, condition shown as drawing 6 (high humidity at an elevated temperature)): --
color change ([5]; additive Hydroxypropylcellulose, one month, light 2500 lux): --
color change ([5]; additive Hydroxypropylmethylcellulose, one month storage, condition shown as drawing 6 (high humidity at an elevated temperature)): ±
color change ([5]; additive Hydroxypropylmethylcellulose, one month, light 2500 lux): --
color change ([5]; additive Lactose, one month storage, condition shown as drawing 6 (high humidity at an elevated temperature)): --
color change ([5]; additive Lactose, one month, light 2500 lux): --
color change ([5]; additive Macrogol 6000, one month storage, condition shown as drawing 6 (high humidity at an elevated temperature)): --
color change ([5]; additive Macrogol 6000, one month, light 2500 lux): --
color change ([5]; additive Magnesium Stearate, one month storage, condition shown as drawing 6 (high humidity at an elevated temperature)): --
color change ([5]; additive Magnesium Stearate, one month, light 2500 lux): --
color change ([5]; additive Mannitol, one month storage, condition shown as drawing 6 (high humidity at an elevated temperature)): --
color change ([5]; additive Mannitol, one month, light 2500 lux): --
color change ([5]; additive Polyvinyl Alcohol, one month storage, condition shown as drawing 6 (high humidity at an elevated temperature)): --
color change ([5]; additive Polyvinyl Alcohol, one month, light 2500 lux): --
color change ([5]; additive Sucrose, one month storage, condition shown as drawing 6 (high humidity at an elevated temperature)): --
color change ([5]; additive Sucrose, one month, light 2500 lux): --
color change ([5]; additive Talc, one month storage, condition shown as drawing 6 (high humidity at an elevated temperature)): --
color change ([5]; additive Talc, one month, light 2500 lux): --
stability of mixture with additives ([5]; in words, high humidity at an elevated temperature for one month or light irradiation from 2,500 lux for one month): stable
Compound: COc1ccc(CCNC(=O)CNc2cccc(C(N)=O)c2)cc1OC [Compound 4, 2-(3-carbamoylphenylamino)-N-(3,4-dimethoxyphenethyl)acetamide.3H2 O]
inhibition in vivo at 100 mg/kg (Stress Ulcer; po, 7 h, 100 mg/kg): 23%
inhibition in vivo at 200 mg/kg (Stress Ulcer; po, 7 h): 36%
inhibition in vivo at 400 mg/kg (Stress Ulcer; po, 7 h): 70%

Compound: COc1ccc(CCNC(=O)CNc2cccc(S(N)(=O)=O)c2)cc1OC
inhibition in vivo at 100 mg/kg (Stress Ulcer; [6]): 47%
